Broadly, the EC50 is the concentration needed to bring the measured effect to its halfway point. The low end stands for a more potent agent, the high end for a less potent agent. As usually defined, the IC50 is the point on the concentration scale where inhibition reaches its midpoint. A low value points to greater potency.

Among the targets are TRPM6 (Homo sapiens, UniProt Q9BX84); TRPM7 (Mus musculus, UniProt Q923J1); TRPM6/7 (Homo sapiens; Mus musculus, UniProt Q923J1+Q9BX84).
Common to all, as to test: whole-cell patch clamp, outward current, CHO-K1
Common to all, as to assay type: cell-based

Chain of TRPM7 (Q923J1 whole entry): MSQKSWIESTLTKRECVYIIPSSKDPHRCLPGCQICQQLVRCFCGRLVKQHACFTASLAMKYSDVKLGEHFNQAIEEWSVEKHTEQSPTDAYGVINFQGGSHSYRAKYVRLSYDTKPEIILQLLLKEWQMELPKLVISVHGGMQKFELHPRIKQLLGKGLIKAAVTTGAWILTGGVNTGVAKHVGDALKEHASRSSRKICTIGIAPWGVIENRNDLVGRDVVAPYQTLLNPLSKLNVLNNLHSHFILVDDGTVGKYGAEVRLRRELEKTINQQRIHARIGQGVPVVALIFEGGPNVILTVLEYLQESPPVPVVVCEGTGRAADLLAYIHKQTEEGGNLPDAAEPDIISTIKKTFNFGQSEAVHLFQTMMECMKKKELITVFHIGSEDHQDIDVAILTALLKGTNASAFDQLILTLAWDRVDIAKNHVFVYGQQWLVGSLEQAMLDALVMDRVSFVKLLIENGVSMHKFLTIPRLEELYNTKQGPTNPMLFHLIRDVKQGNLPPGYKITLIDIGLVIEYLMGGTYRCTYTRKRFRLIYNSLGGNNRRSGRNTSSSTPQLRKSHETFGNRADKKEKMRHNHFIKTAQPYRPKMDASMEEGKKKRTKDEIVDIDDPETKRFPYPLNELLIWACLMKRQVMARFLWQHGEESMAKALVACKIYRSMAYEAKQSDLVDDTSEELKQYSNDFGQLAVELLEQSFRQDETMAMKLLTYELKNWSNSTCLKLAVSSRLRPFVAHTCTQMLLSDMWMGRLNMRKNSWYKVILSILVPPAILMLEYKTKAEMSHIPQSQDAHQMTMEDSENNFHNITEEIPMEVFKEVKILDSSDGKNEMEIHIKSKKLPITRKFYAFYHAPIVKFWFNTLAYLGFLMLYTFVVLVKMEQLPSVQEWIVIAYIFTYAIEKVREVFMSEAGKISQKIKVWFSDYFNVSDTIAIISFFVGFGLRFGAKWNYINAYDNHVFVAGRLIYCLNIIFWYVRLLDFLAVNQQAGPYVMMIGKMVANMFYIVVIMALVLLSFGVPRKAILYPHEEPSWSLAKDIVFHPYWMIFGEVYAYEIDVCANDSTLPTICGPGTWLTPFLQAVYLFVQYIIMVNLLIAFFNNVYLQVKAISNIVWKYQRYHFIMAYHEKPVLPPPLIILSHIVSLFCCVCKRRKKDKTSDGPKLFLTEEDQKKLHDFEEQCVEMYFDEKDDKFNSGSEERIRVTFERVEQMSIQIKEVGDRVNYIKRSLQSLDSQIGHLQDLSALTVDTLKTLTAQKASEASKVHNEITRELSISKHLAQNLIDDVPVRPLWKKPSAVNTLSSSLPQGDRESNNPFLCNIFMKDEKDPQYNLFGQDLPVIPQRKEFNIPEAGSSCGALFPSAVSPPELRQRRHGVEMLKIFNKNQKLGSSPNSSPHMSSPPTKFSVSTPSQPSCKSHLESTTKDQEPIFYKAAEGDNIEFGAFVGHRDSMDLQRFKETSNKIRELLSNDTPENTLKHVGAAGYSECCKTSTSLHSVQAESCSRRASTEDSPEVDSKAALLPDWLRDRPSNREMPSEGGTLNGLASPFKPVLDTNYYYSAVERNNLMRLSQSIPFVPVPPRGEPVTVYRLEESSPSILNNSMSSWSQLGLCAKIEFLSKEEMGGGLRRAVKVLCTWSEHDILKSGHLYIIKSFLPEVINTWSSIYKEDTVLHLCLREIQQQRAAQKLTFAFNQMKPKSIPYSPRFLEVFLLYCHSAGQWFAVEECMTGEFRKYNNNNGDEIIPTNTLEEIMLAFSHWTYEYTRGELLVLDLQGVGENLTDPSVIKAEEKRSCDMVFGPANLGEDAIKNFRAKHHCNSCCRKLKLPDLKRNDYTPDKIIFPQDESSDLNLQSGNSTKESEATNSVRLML
Chain of TRPM6 (Q9BX84 whole entry): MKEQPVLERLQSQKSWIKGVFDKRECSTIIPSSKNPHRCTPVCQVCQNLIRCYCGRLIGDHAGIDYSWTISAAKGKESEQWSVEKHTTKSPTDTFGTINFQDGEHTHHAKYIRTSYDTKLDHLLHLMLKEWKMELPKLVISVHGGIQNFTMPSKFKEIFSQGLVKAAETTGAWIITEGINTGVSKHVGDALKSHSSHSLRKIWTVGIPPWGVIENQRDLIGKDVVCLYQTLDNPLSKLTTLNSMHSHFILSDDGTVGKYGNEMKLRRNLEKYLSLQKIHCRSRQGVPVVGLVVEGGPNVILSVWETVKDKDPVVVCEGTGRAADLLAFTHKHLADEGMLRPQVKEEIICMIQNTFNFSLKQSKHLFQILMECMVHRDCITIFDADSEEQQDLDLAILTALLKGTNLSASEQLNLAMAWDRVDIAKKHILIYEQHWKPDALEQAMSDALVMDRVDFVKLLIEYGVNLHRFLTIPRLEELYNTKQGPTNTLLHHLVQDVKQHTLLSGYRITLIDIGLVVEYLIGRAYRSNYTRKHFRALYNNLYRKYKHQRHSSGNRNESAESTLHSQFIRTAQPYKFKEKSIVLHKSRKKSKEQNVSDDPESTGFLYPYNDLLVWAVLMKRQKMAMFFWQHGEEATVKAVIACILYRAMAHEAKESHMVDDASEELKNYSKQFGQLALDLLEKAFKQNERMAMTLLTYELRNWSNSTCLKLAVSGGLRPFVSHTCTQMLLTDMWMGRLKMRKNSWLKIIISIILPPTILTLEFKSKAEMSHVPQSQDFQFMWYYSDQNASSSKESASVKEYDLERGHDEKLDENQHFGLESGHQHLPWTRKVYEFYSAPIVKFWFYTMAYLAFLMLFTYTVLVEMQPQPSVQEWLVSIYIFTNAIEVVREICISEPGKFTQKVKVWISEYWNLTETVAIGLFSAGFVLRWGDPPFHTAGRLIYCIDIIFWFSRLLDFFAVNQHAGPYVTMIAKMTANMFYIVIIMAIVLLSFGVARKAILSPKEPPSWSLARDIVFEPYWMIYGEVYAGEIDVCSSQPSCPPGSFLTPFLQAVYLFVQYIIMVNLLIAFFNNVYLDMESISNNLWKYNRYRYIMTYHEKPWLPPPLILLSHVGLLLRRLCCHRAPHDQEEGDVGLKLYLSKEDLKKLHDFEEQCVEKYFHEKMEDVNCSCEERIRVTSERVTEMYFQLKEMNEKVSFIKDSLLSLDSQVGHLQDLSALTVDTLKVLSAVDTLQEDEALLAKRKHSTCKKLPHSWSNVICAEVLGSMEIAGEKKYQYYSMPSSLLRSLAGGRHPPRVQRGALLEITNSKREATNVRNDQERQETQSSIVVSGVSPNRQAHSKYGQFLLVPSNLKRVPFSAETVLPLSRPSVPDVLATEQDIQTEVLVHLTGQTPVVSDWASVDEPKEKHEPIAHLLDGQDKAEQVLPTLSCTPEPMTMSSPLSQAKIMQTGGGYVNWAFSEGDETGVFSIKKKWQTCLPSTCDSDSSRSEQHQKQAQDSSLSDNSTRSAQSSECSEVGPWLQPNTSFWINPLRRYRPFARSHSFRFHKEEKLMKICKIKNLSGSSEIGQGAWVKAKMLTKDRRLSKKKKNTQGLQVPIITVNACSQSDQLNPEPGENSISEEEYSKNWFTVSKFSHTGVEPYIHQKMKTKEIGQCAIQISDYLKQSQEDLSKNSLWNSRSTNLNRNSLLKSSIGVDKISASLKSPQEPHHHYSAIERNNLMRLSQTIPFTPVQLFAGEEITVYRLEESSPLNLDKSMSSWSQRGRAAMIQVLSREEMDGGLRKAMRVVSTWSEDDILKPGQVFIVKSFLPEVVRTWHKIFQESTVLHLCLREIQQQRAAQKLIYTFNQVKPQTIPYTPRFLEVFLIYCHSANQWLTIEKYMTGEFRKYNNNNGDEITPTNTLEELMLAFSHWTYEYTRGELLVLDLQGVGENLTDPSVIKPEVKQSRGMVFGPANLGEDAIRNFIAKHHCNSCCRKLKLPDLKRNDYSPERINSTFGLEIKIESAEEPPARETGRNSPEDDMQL
Chain of TRPM6/7 (Q9BX84 whole entry): as above
Chain of TRPM6/7 (Q923J1 whole entry): as the sequence (Q923J1 whole entry) above

Take `NCCOB(c1ccccc1)c1ccccc1` [2-APB]: the EC50 on TRPM6 stood at 205 ± 10 µM; at TRPM6/7, 1600 ± 100 µM. The molecule also showed an IC50 at TRPM7 of 178 ± 14 µM.

Values taken from PMC2151519 (The Journal of General Physiology, 2006).
